PMC11322525, “Dihydrolipoamide dehydrogenase (DLD) is a novel molecular target of bortezomib” (Cell Death & Disease, 2024)

Legend:
[1] = target: T1, DLD (dihydrolipoamide dehydrogenase) (Homo sapiens, UniProt P09622); assay: microscale thermophoresis; assay type: binding; details: unmodified bortezomib; His-tag RED-tris-NTA labelled protein; unit not given
T1 construct: recombinant, customized by DetaiBio; His-tag labelling (RED-tris-NTA) for MST implies His tag
T1 sequence (P09622 36-509): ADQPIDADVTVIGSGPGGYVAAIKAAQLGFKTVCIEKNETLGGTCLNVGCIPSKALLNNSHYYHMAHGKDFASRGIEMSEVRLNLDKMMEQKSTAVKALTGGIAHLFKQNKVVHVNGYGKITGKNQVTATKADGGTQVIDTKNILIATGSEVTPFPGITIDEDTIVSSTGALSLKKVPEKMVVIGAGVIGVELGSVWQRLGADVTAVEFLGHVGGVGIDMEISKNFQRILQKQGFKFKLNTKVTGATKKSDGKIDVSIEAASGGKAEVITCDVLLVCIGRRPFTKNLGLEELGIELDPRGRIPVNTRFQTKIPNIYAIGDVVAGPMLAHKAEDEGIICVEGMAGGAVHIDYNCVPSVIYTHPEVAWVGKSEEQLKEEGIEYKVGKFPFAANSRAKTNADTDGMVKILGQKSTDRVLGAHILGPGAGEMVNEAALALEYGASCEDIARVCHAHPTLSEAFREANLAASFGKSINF

PSMB5 = target: T2, PSMB5 (Homo sapiens, UniProt P28074); assay: microscale thermophoresis; assay type: binding; details: unmodified bortezomib; positive control (protein of the control panel not named in the legend); isolated recombinant subunit
T2 construct: recombinant isolated subunit, customized by DetaiBio; His-tag labelling for MST implies His tag
T2 sequence (P28074 60-263): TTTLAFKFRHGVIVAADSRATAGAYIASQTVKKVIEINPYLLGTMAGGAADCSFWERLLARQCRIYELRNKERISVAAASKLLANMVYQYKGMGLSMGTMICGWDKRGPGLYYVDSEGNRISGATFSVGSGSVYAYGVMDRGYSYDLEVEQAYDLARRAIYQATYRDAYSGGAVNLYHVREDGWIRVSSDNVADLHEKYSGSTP

SMILES: CC(C)C[C@H](NC(=O)[C@H](Cc1ccccc1)NC(=O)c1cnccn1)B(O)O [bortezomib]
- KD [1]: 1.38 ± 0.51 E-7
- KD (PSMB5): binding affinity of BTZ to DLD and to PSMB5
